Our source for the EC50, Activity and Emax values is ChEMBL document CHEMBL4011649 (J Med Chem, 2017).

pEC50: −log10 of the molar value. Calls of active or inactive are those of the source. The rule behind the calls is not given here.

A word on the pEC50: it is the EC50 on a negative log10 scale, so that one unit is a factor of ten. The Emax is the maximal effect, on the per cent scale that the assay sets.

The target in data set [1] is T1, 5-hydroxytryptamine receptor 2C (Homo sapiens, UniProt P28335).
T1 sequence (P28335 whole entry): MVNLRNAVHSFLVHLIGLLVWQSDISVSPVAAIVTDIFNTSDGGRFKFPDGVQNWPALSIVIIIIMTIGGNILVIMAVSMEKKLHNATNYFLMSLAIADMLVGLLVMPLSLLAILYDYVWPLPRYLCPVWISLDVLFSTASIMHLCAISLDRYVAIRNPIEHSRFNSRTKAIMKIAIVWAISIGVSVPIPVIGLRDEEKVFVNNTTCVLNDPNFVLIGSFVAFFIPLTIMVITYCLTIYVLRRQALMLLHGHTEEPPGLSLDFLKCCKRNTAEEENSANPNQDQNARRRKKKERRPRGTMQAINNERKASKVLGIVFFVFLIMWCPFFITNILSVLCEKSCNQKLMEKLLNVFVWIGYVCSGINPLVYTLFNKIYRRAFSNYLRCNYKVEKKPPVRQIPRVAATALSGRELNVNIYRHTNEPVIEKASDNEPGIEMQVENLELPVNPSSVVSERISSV
The experiment in a line: Agonist activity at human 5-HT2C-INI receptor isoform expressed in Flp-IN HEK293 cells assessed as induction of Gq-mediated calcium flux measured every second for 5 mins by Fluo-4 dye based FLIPR assay. In kind it is functional, cell-based. Particulars: read-out: EC50.

Data set [2] has as its target T2, 5-hydroxytryptamine receptor 2B (Homo sapiens, UniProt P41595). The experiment in a line: Agonist activity at human 5-HT2B receptor expressed in Flp-IN HEK293 cells assessed as induction of calcium flux up to 10 uM measured every second for 5 mins by Fluo-4 dye based FLIPR assay. In kind it is cell-based. Particulars: hek293, 5 min. In general terms: Calcium assays in cells follow changes in intracellular calcium, usually with a dye or a luminescent sensor.

The target in data set [3] is T3, 5-hydroxytryptamine receptor 2A (Homo sapiens, UniProt P28223). Put plainly: Agonist activity at human 5-HT2A receptor expressed in Flp-IN HEK293 cells assessed as induction of calcium flux measured every second for 5 mins by Fluo-4 dye based FLIPR assay. In kind it is cell-based.
T3 sequence (P28223 whole entry): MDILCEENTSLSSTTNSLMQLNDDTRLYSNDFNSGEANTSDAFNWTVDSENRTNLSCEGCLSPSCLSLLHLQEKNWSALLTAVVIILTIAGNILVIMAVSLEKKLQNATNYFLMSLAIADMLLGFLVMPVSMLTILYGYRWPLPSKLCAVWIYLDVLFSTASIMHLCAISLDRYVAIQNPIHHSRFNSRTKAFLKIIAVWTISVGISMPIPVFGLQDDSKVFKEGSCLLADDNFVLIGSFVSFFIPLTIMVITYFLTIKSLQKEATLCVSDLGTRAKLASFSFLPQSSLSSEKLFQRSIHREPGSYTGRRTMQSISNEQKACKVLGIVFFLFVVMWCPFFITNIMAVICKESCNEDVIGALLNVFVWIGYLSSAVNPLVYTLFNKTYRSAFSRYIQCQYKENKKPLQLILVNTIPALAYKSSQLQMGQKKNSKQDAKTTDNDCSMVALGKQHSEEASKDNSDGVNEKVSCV
In another data set the target is 5-HT2A receptor (Homo sapiens, UniProt P28223). The experiment in a line: Agonist activity at human 5-HT2A receptor expressed in Flp-IN HEK293 cells assessed as induction of calcium flux measured every second for 5 mins by Fluo-4 dye based FLIPR assay relative to serotonin. In kind it is cell-based. The conditions noted are these: Flp-IN HEK293 cells expressing human 5-HT2A receptor.
Chain of 5-HT2A receptor (P28223 whole entry): as above

Data set [4] concerns the target T4, 5-hydroxytryptamine receptor 2C (Homo sapiens) (UniProt P28335).
T4 sequence (whole entry): T1 sequence (P28335 whole entry)
The experiment in a line: Agonist activity at human 5-HT2C-INI receptor isoform expressed in Flp-IN HEK293 cells assessed as induction of Gq-mediated calcium flux measured every second for 5 mins by Fluo-4 dye based FLIPR assay relative to serotonin. In kind it is functional, cell-based.

The target of a further data set is 5-HT2B receptor (Homo sapiens, UniProt P41595). The experiment in a line: Agonist activity at human 5-HT2B receptor expressed in Flp-IN HEK293 cells assessed as induction of calcium flux measured every second for 5 mins by Fluo-4 dye based FLIPR assay relative to serotonin. In kind it is cell-based. Particulars: Flp-IN HEK293 cells expressing human 5-HT2B receptor.
Chain of 5-HT2B receptor (P41595 whole entry): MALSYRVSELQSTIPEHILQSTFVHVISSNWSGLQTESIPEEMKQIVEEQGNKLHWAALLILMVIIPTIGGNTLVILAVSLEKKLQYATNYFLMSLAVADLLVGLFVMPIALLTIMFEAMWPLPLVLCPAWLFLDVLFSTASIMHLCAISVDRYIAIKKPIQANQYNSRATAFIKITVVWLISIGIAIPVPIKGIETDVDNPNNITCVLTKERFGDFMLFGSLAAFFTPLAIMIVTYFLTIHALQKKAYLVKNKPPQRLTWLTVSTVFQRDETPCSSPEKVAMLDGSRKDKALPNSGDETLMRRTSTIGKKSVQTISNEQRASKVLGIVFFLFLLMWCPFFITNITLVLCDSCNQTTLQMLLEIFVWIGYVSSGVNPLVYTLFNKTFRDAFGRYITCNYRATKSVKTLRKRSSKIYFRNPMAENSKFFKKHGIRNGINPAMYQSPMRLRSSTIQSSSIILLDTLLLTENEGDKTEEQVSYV

Data set [5] has as its target T2, 5-hydroxytryptamine receptor 2B. The experiment in a line: Agonist activity at human 5-HT2B receptor expressed in Flp-IN HEK293 cells assessed as induction of calcium flux measured every second for 5 mins by Fluo-4 dye based FLIPR assay. In kind it is cell-based.
In data set [6] the target is T4, 5-hydroxytryptamine receptor 2C (Homo sapiens). The experiment in a line: Agonist activity at human 5-HT2C-INI receptor isoform expressed in Flp-IN HEK293 cells assessed as induction of Gq-mediated calcium flux up to 10 uM measured every second for 5 mins by Fluo-4 dye based FLIPR assay. In kind it is functional, cell-based.
Data set [7] addresses T3, 5-hydroxytryptamine receptor 2A. The experiment in a line: Agonist activity at human 5-HT2A receptor expressed in Flp-IN HEK293 cells assessed as induction of calcium flux up to 10 uM measured every second for 5 mins by Fluo-4 dye based FLIPR assay. In kind it is cell-based. The conditions noted are these: hek293, 5 min.

T2 sequence (P41595 whole entry): as above

With `COc1ccc(F)cc1C1CC1CNCc1ccsc1OC.Cl` (racemic), the pEC50 in data set [1] is 6.25; in data set [3], 6.33. Further, the Activity entry in [2] is listed as “Not Active”. The maximum response (Emax) at 5 min on 5-HT2A receptor came out at 100%. In addition, the maximum response (Emax) in data set [4] was 65%.

As for `COc1ccc(F)cc1C1CC1CNCc1cccnc1OC` (racemic), the values for the maximal response (Emax) at 5 min on 5-HT2B receptor and on 5-HT2A receptor were 32% and 66%, respectively. In addition, the pEC50 is 6.56 in data set [5], 6.36 in data set [1] and 5.89 in [3]. For the same compound, in [4], the Emax was 65%.

For the compound `COc1ccc(F)cc1C1CC1CNCC1CC1.Cl` (racemic), the outcome in data set [6] was inactive. The Activity entry in data set [2] is reported as “Not Active”. Besides, the negative-log EC50 (pEC50) in data set [3] is 5.37. Also, at 5-HT2A receptor, the maximal effect (Emax) at 5 min was 43%.

In the case of `COc1ccccc1CCNCC1CC1c1cc(F)ccc1OC` (racemic), the pEC50 in [3] is 6.51. The Emax at 5 min at 5-HT2A receptor stood at 59%.

Turning to `COc1ccc(F)cc1[C@H]1C[C@@H]1CNCc1ccccc1Cl.Cl`, the negative-log EC50 (pEC50) was 6.28 in data set [1] and 5.45 in [3]. In addition, in data set [2], the Activity entry is “Not Active”. Also, the Emax at 5 min on 5-HT2A receptor came to 64%. For the same compound, in [4], the maximal response (Emax) is 94%.

Consider `COc1cccc(CNC[C@H]2C[C@@H]2c2cc(F)ccc2OC)c1.Cl`, for which the negative logarithm of the EC50 (pEC50) is 6.64 in data set [1] and 5.43 in [3]. In addition, the Activity entry in data set [2] was “Not Active”. Also, the maximum response (Emax) at 5 min at 5-HT2A receptor was 70%. For the same compound, the Emax in data set [4] was determined as 83%.

With `COc1ccc(F)cc1C1CC1CNCC1CCCCC1.Cl` (racemic), the Activity entry in data set [7] and in data set [2] was “Not Active” throughout. Also, the pEC50 in data set [1] is 7.02. The Emax in data set [4] was determined as 15%.

On to `C=CCOc1ccc(F)cc1[C@H]1C[C@@H]1CNC.Cl`, for which the pEC50 in data set [1] is 7.89; in [3], 6.55. In addition, in data set [2], the Activity entry is on record as “Not Active”. For the same compound, the maximum response (Emax) at 5 min on 5-HT2A receptor was 19%. Besides, in data set [4], the maximum response (Emax) amounted to 15%.

In the case of `CNC[C@H]1C[C@@H]1c1cc(F)ccc1OCCF.Cl`, the outcome in data set [6] was inactive. Moreover, the Activity result in [7] and in data set [2] was “Not Active” each time.

Take `COc1ccccc1CNC[C@@H]1C[C@H]1c1cc(F)ccc1OC`: the Emax at 5 min on 5-HT2B receptor is 72%; on 5-HT2A receptor, 94%. The negative-log EC50 (pEC50) in data set [5] was 6.24. Also, in [4], the Emax was 104%.

In the case of `COc1ccc(F)cc1[C@H]1C[C@@H]1CNCc1ccccc1F.Cl`, the negative-log EC50 (pEC50) is 6.30 in [1] and 5.73 in data set [3]. For the same compound, in [2], the Activity result is recorded as “Not Active”. The maximum response (Emax) at 5 min on 5-HT2A receptor was found to be 63%. The maximal effect (Emax) in data set [4] was found to be 78%.

As for `COc1cscc1CNCC1CC1c1cc(F)ccc1OC.Cl` (racemic), the negative-log EC50 (pEC50) in data set [1] is 6.64; in data set [3], 6.84. For the same compound, the Activity entry in [2] is given as “Not Active”. For the same compound, the maximal response (Emax) at 5 min at 5-HT2A receptor came to 89%. Further, the maximal response (Emax) in [4] was 65%.

Consider `COc1cccc(CNC[C@@H]2C[C@H]2c2cc(F)ccc2OC)c1.Cl`, for which the pEC50 in data set [1] is 5.59; in data set [3] it was 5.16. Further, the Activity result in data set [2] was “Not Active”. Moreover, the maximal response (Emax) at 5 min at 5-HT2A receptor amounted to 97%. For the same compound, in [4], the maximal effect (Emax) came out at 85%.

On to `COc1ccc(F)cc1C1CC1CNCc1ccccc1C(N)=O` (racemic), for which the figures for the maximal response (Emax) at 5 min at 5-HT2B receptor and on 5-HT2A receptor were 82% and 67%, respectively. The negative-log EC50 (pEC50) is 6.47 in data set [5], 6.39 in data set [1] and 5.88 in data set [3]. In addition, the Emax in data set [4] amounted to 31%.

As for `COc1ccccc1C(C)NCC1CC1c1cc(F)ccc1OC.Cl` (racemic), the pEC50 in [1] was 5.59; in data set [3], 6.62. Further, the Activity entry in data set [2] was “Not Active”. Further, the Emax at 5 min at 5-HT2A receptor stood at 106%. Also, the maximal effect (Emax) in data set [4] stood at 81%.

For the compound `COc1ccc(F)cc1C1CC1CNCc1cccc2ccsc12` (racemic), the maximal response (Emax) at 5 min on 5-HT2B receptor came to 79%; on 5-HT2A receptor, 70%. Moreover, the pEC50 is 6.09 in [5], 6.11 in data set [1] and 5.65 in data set [3]. Further, the Emax in [4] was 94%.

With `COc1ccc(F)cc1C1CC1CNCc1ccccc1C#N` (racemic), the maximal response (Emax) at 5 min at 5-HT2B receptor worked out at 82%; at 5-HT2A receptor it was 63%. Moreover, the pEC50 was 6.62 in data set [5], 6.61 in data set [1] and 6.14 in [3]. Also, the Emax in data set [4] was 30%.

As for `COc1ccc(F)cc1C1CC1CNCc1cccc2cc[nH]c12.Cl` (racemic), the result in [6] was inactive. Also, the Activity entry in [7] and in data set [2] was “Not Active” each time.

For `COc1ccc(F)cc1C1CC1CNC1(c2ccccc2OC)CC1.Cl` (racemic), the values for the pEC50 in data set [1] and in data set [3] were 6.06 and 6.18, respectively. The Activity entry in [2] is given as “Not Active”. For the same compound, the Emax at 5 min at 5-HT2A receptor amounted to 102%. Also, the Emax in [4] turned out to be 77%.

As for `COc1ccc(F)cc1[C@@H]1C[C@H]1CNCc1ccccc1Cl.Cl`, the pEC50 in data set [1] was 5.73; in [3] it was 5.52. For the same compound, the Activity entry in [2] was “Not Active”. For the same compound, in data set [4], the Emax stood at 72%.

Regarding `COc1ccccc1CN(C)CC1CC1c1cc(F)ccc1OC.Cl` (racemic), the values for the negative logarithm of the EC50 (pEC50) in data set [1] and in data set [3] were 6.17 and 5.60, respectively. Moreover, the Activity result in data set [2] is listed as “Not Active”. On 5-HT2A receptor, the Emax at 5 min stood at 24%. The maximal response (Emax) in data set [4] came out at 49%.

As for `COc1ccc(F)cc1C1CC1CNCc1ccccc1O.Cl` (racemic), the values for the negative logarithm of the EC50 (pEC50) in data set [1] and in data set [3] were 6.52 and 7.11, respectively. Moreover, the Activity result in [2] was “Not Active”. Also, at 5-HT2A receptor, the maximum response (Emax) at 5 min is 76%. The Emax in [4] was 63%.

In the case of `COc1ccc(CNC[C@H]2C[C@@H]2c2cc(F)ccc2OC)cc1.Cl`, the Activity entry in [7] and in data set [2] was “Not Active” each time. For the same compound, in [1], the negative-log EC50 (pEC50) is 5.92. Moreover, in data set [4], the Emax amounted to 71%.

Take `COc1ccc(F)cc1C1CC1CNC1CC1` (racemic): the Emax at 5 min on 5-HT2B receptor amounted to 14%; on 5-HT2A receptor it was 69%. The results for the negative-log EC50 (pEC50) in [5], in data set [1] and in data set [3] were 6.19, 6.40 and 5.96, respectively. Also, the maximum response (Emax) in [4] was determined as 70%.

Turning to `COc1ccc(F)cc1C1CC1CNCc1sccc1OC.Cl` (racemic), the figures for the pEC50 in [1] and in data set [3] were 6.92 and 6.83, respectively. Moreover, in [2], the Activity result was “Not Active”. Besides, at 5-HT2A receptor, the maximal effect (Emax) at 5 min turned out to be 102%. Further, in data set [4], the maximal effect (Emax) is 66%.

Regarding `COc1ccc(F)cc1[C@@H]1C[C@H]1CNCc1cccs1.Cl`, the negative-log EC50 (pEC50) in data set [1] is 6.51; in data set [3] it was 6.17. Besides, the Activity result in data set [2] was “Not Active”. Also, at 5-HT2A receptor, the maximum response (Emax) at 5 min turned out to be 59%. Moreover, the Emax in data set [4] was determined as 81%.

As to `COc1ccc(F)cc1[C@@H]1C[C@H]1CNCc1ccccc1F.Cl`, the pEC50 was 5.79 in data set [1] and 5.73 in [3]. For the same compound, in data set [2], the Activity entry is “Not Active”. Also, at 5-HT2A receptor, the maximal effect (Emax) at 5 min was 78%. For the same compound, the Emax in [4] came out at 90%.

Consider `COc1ccc(F)cc1C1CC1CNCc1cccc2cccnc12` (racemic), for which the figures for the Emax at 5 min at 5-HT2B receptor and at 5-HT2A receptor were 73% and 69%, respectively. Further, the values for the pEC50 in [5], in data set [1] and in [3] were 7.06, 6.28 and 6.34, respectively. In data set [4], the Emax was found to be 84%.
